Like-named read-outs stand apart in the source and are kept apart here.
Molecular target: PDE9 (Homo sapiens, UniProt O76083)
Test: PDE9 inhibition assay
Assay type: biochemical
Method: Reactions are initiated by addition of the cyclic nucleotide substrate, and reactions are allowed to proceed for one hr at room temperature before being terminated through mixing with 15 uL 8 mg/mL yttrium silicate SPA beads (Amersham). […] IC50 values were calculated by non linear regression using XLfit (IDBS).

[1] = SPA assay, 10 nM 3H-cAMP, 1 hour incubation, read-out: IC50

Sequence of PDE9 (O76083 whole entry): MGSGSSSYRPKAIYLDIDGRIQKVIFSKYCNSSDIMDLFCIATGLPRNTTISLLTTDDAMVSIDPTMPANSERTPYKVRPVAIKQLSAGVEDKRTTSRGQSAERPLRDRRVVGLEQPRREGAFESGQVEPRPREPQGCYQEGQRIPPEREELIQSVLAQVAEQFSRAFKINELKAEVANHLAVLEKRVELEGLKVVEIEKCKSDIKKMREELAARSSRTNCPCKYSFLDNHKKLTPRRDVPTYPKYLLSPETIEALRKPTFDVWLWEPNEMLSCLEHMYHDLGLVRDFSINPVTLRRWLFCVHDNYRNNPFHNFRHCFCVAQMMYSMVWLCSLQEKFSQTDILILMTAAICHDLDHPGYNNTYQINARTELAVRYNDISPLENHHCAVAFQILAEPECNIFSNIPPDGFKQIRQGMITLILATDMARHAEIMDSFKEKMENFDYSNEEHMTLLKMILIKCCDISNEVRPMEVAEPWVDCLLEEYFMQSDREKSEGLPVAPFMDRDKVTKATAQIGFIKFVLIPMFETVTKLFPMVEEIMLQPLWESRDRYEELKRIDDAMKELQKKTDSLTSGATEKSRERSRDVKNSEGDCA

| SMILES | IC50 [1] | IC50 |
| --- | --- | --- |
| O=c1[nH]c(CN2CC(c3ccc(F)cc3)C2)cn2c(C3CCOCC3)ncc12 [Compound 44, 6-[[3-(4-fluorophenyl)azetidin-1-yl]methyl]-3-tetrahydropyran-4-yl-7h-imidazo[1,5-a]pyrazin-8-one] | 25 nM | – |
| N#Cc1cccc(C2CN(Cc3cn4c(C5CCOCC5)ncc4c(=O)[nH]3)C2)c1 [Compound 107, 3-[1-[(8-oxo-3-tetrahydropyran-4-yl-7h-imidazo[1,5-a]pyrazin-6-yl)methyl]azetidin-3-yl]benzonitrile] | 35 nM | – |
| O=c1[nH]c(CN2CC(Oc3ccccc3F)C2)cn2c(C3CCOCC3)ncc12 [Compound 50, 6-[[3-(2-fluorophenoxy)azetidin-1-yl]methyl]-3-tetrahydropyran-4-yl-7h-imidazo[1,5-a]pyrazin-8-one] | – | 21 nM |
| CC(C)OC1CN(C(C)c2cn3c(C4CCOCC4)ncc3c(=O)[nH]2)C1 (stereo not shown) [Compound 117, 6-[1-(3-isopropoxyazetidin-1-yl)ethyl]-3-tetrahydropyran-4-yl-7h-imidazo[1,5-a]pyrazin-8-one] | – | 93 nM |
| O=c1[nH]c(CN2CC(c3ccccc3)C2)cn2c(C3CCOCC3)ncc12 [Compound 68, 6-[(3-phenylazetidin-1-yl)methyl]-3-tetrahydropyran-4-yl-7h-imidazo[1,5-a]pyrazin-8-one] | – | 8 nM |
| O=c1[nH]c(CN2CC(Oc3cccc(F)c3)C2)cn2c(C3CCOCC3)ncc12 [Compound 71, 6-[[3-(3-fluorophenoxy)azetidin-1-yl]methyl]-3-tetrahydropyran-4-yl-7h-imidazo[1,5-a]pyrazin-8-one] | – | 7 nM |
| O=c1[nH]c(CN2CC(c3ccc(C(F)(F)F)cn3)C2)cn2c(-c3ccc(F)cc3)ncc12 [Compound 77, 3-(4-fluorophenyl)-6-[[3-[5-(trifluoromethyl)-2-pyridyl]azetidin-1-yl]methyl]-7h-imidazo[1,5-a]pyrazin-8-one] | 4 nM | – |
| Cc1cc(C)nc(OC2CN(Cc3cn4c(-c5ccccc5)ncc4c(=O)[nH]3)C2)n1 [Compound 14, 6-[[3-(4,6-dimethylpyrimidin-2-yl)oxyazetidin-1-yl]methyl]-3-phenyl-7h-imidazo[1,5-a]pyrazin-8-one] | – | 50 nM |
| COc1ccc(CN2CC(C)C(c3cn4c(C5CCOCC5)ncc4c(=O)[nH]3)C2)cn1 (stereo not shown) [Compound 101, 6-[1-[(6-methoxy-3-pyridyl)methyl]-4-methyl-pyrrolidin-3-yl]-3-tetrahydropyran-4-yl-7h-imidazo[1,5-a]pyrazin-8-one] | 18 nM | – |
| N#Cc1cccc(OC2CN(Cc3cn4c(C5CCOCC5)ncc4c(=O)[nH]3)C2)c1 [Compound 94, 3-[1-[(8-oxo-3-tetrahydropyran-4-yl-7h-imidazo[1,5-a]pyrazin-6-yl)methyl]azetidin-3-yl]oxybenzonitrile] | – | 12 nM |
| CCc1ccc(C2CN(Cc3cn4c(C5CCOCC5)ncc4c(=O)[nH]3)C2)cc1 [Compound 78, 6-[[3-(4-ethylphenyl)azetidin-1-yl]methyl]-3-tetrahydropyran-4-yl-7h-imidazo[1,5-a]pyrazin-8-one] | 6 nM | – |
| O=c1[nH]c(CN2CC(Oc3cnccn3)C2)cn2c(-c3ccc(F)cc3)ncc12 [Compound 55, 3-(4-fluorophenyl)-6-[(3-pyrazin-2-yloxyazetidin-1-yl)methyl]-7h-imidazo[1,5-a]pyrazin-8-one] | 9 nM | – |
| N#Cc1ccc(OC2CN(Cc3cn4c(C5CCOCC5)ncc4c(=O)[nH]3)C2)cc1 [Compound 80, 4-[1-[(8-oxo-3-tetrahydropyran-4-yl-7h-imidazo[1,5-a]pyrazin-6-yl)methyl]azetidin-3-yl]oxybenzonitrile] | 18 nM | – |
| O=c1[nH]c(CN2CC(Oc3cccnc3)C2)cn2c(-c3ccc(F)cc3)ncc12 [Compound 88, 3-(4-fluorophenyl)-6-[[3-(3-pyridyloxy)azetidin-1-yl]methyl]-7h-imidazo[1,5-a]pyrazin-8-one] | – | 3 nM |
| CC(c1cn2c(C3CCCC3)ncc2c(=O)[nH]1)N1CC(Oc2ccccc2F)C1 (stereo not shown) [Compound 52, 3-cyclopentyl-6-[1-[3-(2-fluorophenoxy)azetidin-1-yl]ethyl]-7h-imidazo[1,5-a]pyrazin-8-one] | 49 nM | – |
| CN(C)c1ccc(C2CN(Cc3cn4c(C5CCCC5)ncc4c(=O)[nH]3)C2)cc1 [Compound 48, 3-cyclopentyl-6-[[3-(4-dimethylaminophenyl)azetidin-1-yl]methyl]-7h-imidazo[1,5-a]pyrazin-8-one] | 40 nM | – |
| CC(c1cn2c(C3CCCC3)ncc2c(=O)[nH]1)N1CC(Oc2ncccn2)C1 (stereo not shown) [Compound 42, 3-cyclopentyl-6-[1-(3-pyrimidin-2-yloxyazetidin-1-yl)ethyl]-7h-imidazo[1,5-a]pyrazin-8-one] | 8 nM | – |

The remaining lines, values ahead:

| IC50 [1] | IC50 | SMILES |
| --- | --- | --- |
| – | 32 nM | O=c1[nH]c(CN2CC(Oc3cnccn3)C2)cn2c(-c3ccccc3)ncc12 [Compound 4, 3-phenyl-6-[(3-pyrazin-2-yloxyazetidin-1-yl)methyl]-7h-imidazo[1,5-a]pyrazin-8-one] |
| 7 nM | – | O=c1[nH]c(CN2CC(Oc3cnc4ccccc4n3)C2)cn2c(-c3ccccc3)ncc12 [Compound 13, 3-phenyl-6-[(3-quinoxalin-2-yloxyazetidin-1-yl)methyl]-7h-imidazo[1,5-a]pyrazin-8-one] |
| 14 nM | – | CC(c1cn2c(-c3ccccc3)ncc2c(=O)[nH]1)N1CC(Oc2ncccn2)C1 (stereo not shown) [Compound 7, 3-phenyl-6-[1-(3-pyrimidin-2-yloxyazetidin-1-yl)ethyl]-7h-imidazo[1,5-a]pyrazin-8-one] |
| 72 nM | – | CC(c1cn2c(-c3ccc(F)cc3)ncc2c(=O)[nH]1)N1CC(c2ccc(F)cc2)C1 (stereo not shown) [Compound 124, 3-(4-fluorophenyl)-6-[1-[3-(4-fluorophenyl)azetidin-1-yl]ethyl]-7h-imidazo[1,5-a]pyrazin-8-one] |
| 16 nM | – | O=c1[nH]c(CN2CC(Oc3ccccc3F)C2)cn2c(-c3ccc(F)cc3)ncc12 [Compound 49, 6-[[3-(2-fluorophenoxy)azetidin-1-yl]methyl]-3-(4-fluorophenyl)-7h-imidazo[1,5-a]pyrazin-8-one] |
| 8 nM | – | O=c1[nH]c(CN2CC(Oc3ccccc3)C2)cn2c(-c3ccccc3)ncc12 [Compound 21, 6-[(3-phenoxyazetidin-1-yl)methyl]-3-phenyl-7h-imidazo[1,5-a]pyrazin-8-one] |
| – | 76 nM | N#Cc1ccc(OC2CN(Cc3cn4c(-c5ccc(F)cc5)ncc4c(=O)[nH]3)C2)cc1 [Compound 92, 4-[1-[[3-(4-fluorophenyl)-8-oxo-7h-imidazo[1,5-a]pyrazin-6-yl]methyl]azetidin-3-yl]oxybenzonitrile] |
| 40 nM | – | CC(c1cn2c(-c3ccccc3)ncc2c(=O)[nH]1)N1CC(Oc2cnccn2)C1 (stereo not shown) [Compound 15, 3-phenyl-6-[1-(3-pyrazin-2-yloxyazetidin-1-yl)ethyl]-7h-imidazo[1,5-a]pyrazin-8-one] |
| – | 20 nM | Cc1ccnc(C2CN(C(C)c3cn4c(-c5ccccc5)ncc4c(=O)[nH]3)C2)c1 (stereo not shown) [Compound 29, 6-[1-[3-(4-methyl-2-pyridyl)azetidin-1-yl]ethyl]-3-phenyl-7h-imidazo[1,5-a]pyrazin-8-one] |
| 53 nM | – | CC(c1cn2c(-c3ccccc3)ncc2c(=O)[nH]1)N1CC(c2ccc(F)cc2)C1 (stereo not shown) [Compound 28, 6-[1-[3-(4-fluorophenyl)azetidin-1-yl]ethyl]-3-phenyl-7h-imidazo[1,5-a]pyrazin-8-one] |
| 23 nM | – | CC(c1cn2c(-c3ccccc3)ncc2c(=O)[nH]1)N1CC(c2ccc(C#N)cc2)C1 (stereo not shown) [Compound 38, 4-[1-[1-(8-oxo-3-phenyl-7h-imidazo[1,5-a]pyrazin-6-yl)ethyl]azetidin-3-yl]benzonitrile] |
| 97 nM | – | O=c1[nH]c(CN2CC(Oc3cccc(F)c3)C2)cn2c(-c3ccccc3)ncc12 [Compound 16, 6-[[3-(3-fluorophenoxy)azetidin-1-yl]methyl]-3-phenyl-7h-imidazo[1,5-a]pyrazin-8-one] |
| 16 nM | – | O=c1[nH]c(CN2CC(Oc3ccc(F)cc3)C2)cn2c(-c3ccccc3)ncc12 [Compound 23, 6-[[3-(4-fluorophenoxy)azetidin-1-yl]methyl]-3-phenyl-7h-imidazo[1,5-a]pyrazin-8-one] |
| 19 nM | – | CCC(c1cn2c(-c3ccccc3)ncc2c(=O)[nH]1)N1CC(c2ccc(F)cc2)C1 (stereo not shown) [Compound 12, 6-[1-[3-(4-fluorophenyl)azetidin-1-yl]propyl]-3-phenyl-7h-imidazo[1,5-a]pyrazin-8-one] |
| – | 69 nM | O=c1[nH]c(CN2CC(c3ccc(F)cc3)C2)cn2c(-c3ccccc3)ncc12 [Compound 19, 6-[[3-(4-fluorophenyl)azetidin-1-yl]methyl]-3-phenyl-7h-imidazo[1,5-a]pyrazin-8-one] |
| – | 2 nM | N#Cc1ccc(C2CN(Cc3cn4c(-c5ccc(F)cc5)ncc4c(=O)[nH]3)C2)cc1 [Compound 96, 4-[1-[[3-(4-fluorophenyl)-8-oxo-7h-imidazo[1,5-a]pyrazin-6-yl]methyl]azetidin-3-yl]benzonitrile] |
| 25 nM | – | CC(c1cn2c(-c3ccccc3)ncc2c(=O)[nH]1)N1CC(Oc2cccc(F)c2)C1 (stereo not shown) [Compound 24, 6-[1-[3-(3-fluorophenoxy)azetidin-1-yl]ethyl]-3-phenyl-7h-imidazo[1,5-a]pyrazin-8-one] |
| 31 nM | – | O=c1[nH]c(CN2CC(Oc3cccc(F)n3)C2)cn2c(-c3ccccc3)ncc12 [Compound 6, 6-[[3-[(6-fluoro-2-pyridyl)oxy]azetidin-1-yl]methyl]-3-phenyl-7h-imidazo[1,5-a]pyrazin-8-one] |
| 33 nM | – | CC1CN(Cc2ccccc2)CC1c1cn2c(-c3ccccc3)ncc2c(=O)[nH]1 (stereo not shown) [Compound 31, 6-(1-benzyl-4-methyl-pyrrolidin-3-yl)-3-phenyl-7h-imidazo[1,5-a]pyrazin-8-one] |
| – | 72 nM | CC(c1cn2c(-c3ccccc3)ncc2c(=O)[nH]1)N1CC(Oc2ccccc2F)C1 (stereo not shown) [Compound 32, 6-[1-[3-(2-fluorophenoxy)azetidin-1-yl]ethyl]-3-phenyl-7h-imidazo[1,5-a]pyrazin-8-one] |
